Measurements as given in patent US20230009608A1, “GRK2 INHIBITORS AND USES THEREOF” (Cygnal Therapeutics, Inc., priority 2020, published 2023).

What was measured:
[1] = target: T1, GRK2 (Homo sapiens, UniProt P25098); experiment: ADPGlo GRK2 Inhibition Assay (Example 8); type: biochemical; conditions: ADPGlo GRK2 enzyme assay; read-out: A: Enzymatic GRK2: IC50 (nM) (Example 8)
T1 construct: purchased SignalChem A14-10G
T1 sequence (P25098 1-689): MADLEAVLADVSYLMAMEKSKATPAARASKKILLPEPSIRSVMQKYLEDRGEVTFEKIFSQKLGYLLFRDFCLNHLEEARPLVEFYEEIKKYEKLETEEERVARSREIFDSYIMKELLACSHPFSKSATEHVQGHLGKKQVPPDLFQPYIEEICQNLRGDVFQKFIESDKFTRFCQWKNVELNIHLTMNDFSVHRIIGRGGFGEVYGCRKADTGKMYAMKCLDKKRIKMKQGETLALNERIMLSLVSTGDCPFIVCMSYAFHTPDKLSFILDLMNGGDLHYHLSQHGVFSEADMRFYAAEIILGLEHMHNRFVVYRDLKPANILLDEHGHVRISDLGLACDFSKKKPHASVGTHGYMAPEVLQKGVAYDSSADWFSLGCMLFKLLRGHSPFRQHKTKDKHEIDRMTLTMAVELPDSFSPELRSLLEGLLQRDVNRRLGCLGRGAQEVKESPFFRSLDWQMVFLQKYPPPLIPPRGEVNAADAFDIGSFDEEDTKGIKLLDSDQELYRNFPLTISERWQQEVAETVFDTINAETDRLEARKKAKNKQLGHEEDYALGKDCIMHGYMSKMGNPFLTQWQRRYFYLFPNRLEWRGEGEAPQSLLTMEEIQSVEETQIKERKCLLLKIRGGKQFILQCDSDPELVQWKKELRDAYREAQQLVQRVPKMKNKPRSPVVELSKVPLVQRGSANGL
Summary of the method: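 GRK2 (15 nM 2× enzyme solution) was preincubated 15 min with compound, then reacted 180 min at room temperature with 2× mix of 20 μM ATP plus GRKtide in HEPES pH 7.5, MgCl2, Tween-20, DTT. ADP was detected by ADP-Glo luminescence. Percent inhibition was normalised to enzyme and no-enzyme controls, with dose-response curves from threefold dilutions starting at 100 μM.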

[2] = test system: PAXF1657 control empty vector cell line; experiment: 7-day proliferation assay, PAXF1657 control empty vector cell line (Example 9); type: cell-based; conditions: 168 h; Cell Line: PAXF1657 empty vector (EV) cell line; 7-day; read-out: C: 7-day proliferation assay: IC50 GeoMean
Summary of the method: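 500 cells/well, RPMI1640 + 10% H.I. FBS, adhered overnight at 37° C. Compound 10-pt dilution, 30 μM-0.0002 μM final, 0.3% DMSO. 3 d, media + compound replaced, further 4 d. Viability by CellTiter-Glo; untreated plates read at time of dosing.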

Structure (SMILES) | IC50 [1] | IC50 [2]
CCCn1c(CNc2cccc(C(=O)N[C@@H](C)c3cccc(OC)c3)c2)nnc1-c1ccncn1 | 14.1 nM | > 30 µM
CCCn1c(CNc2cccc(C(=O)N[C@H](C)c3cccc(OC)c3)c2)nnc1-c1ccncn1 | 40.1 nM | > 0.219 µM
COc1cccc([C@H](C)NC(=O)c2cccc(NCc3nnc4n3CCOc3cnccc3-4)c2)c1 | 6.52 nM | 10.1 µM
COc1cccc([C@@H](C)NC(=O)c2cccc(NCc3nnc4n3CCOc3cnccc3-4)c2)c1 | 15.9 nM | > 3.65 µM
COc1cccc([C@H](C)NC(=O)c2cccc(NCc3nnc(-c4ccncn4)n3CCO)c2)c1 | 2.41 nM | 0.0307 µM
COc1cccc([C@@H](C)NC(=O)c2cccc(NCc3nnc(-c4ccncn4)n3CCO)c2)c1 | 4.91 nM | 1.23 µM
COc1cccc([C@H](C)NC(=O)c2cccc(NCc3nnc(-c4ccncc4)n3CCO)c2)c1 | 2.99 nM | > 30 µM
COc1cccc([C@@H](C)NC(=O)c2cccc(NCc3nnc(-c4ccncc4)n3CCO)c2)c1 | 99.4 nM | > 30 µM
C[C@H](NC(=O)c1cccc(NCc2nnc(-c3ccncc3)n2CCO)c1)c1ncccc1Cl | 28.3 nM | 0.0809 µM
COc1cccc([C@H](C)NC(=O)c2cccc(NCc3nnc(-c4ccncc4F)n3C)c2)c1 | 11.6 nM | > 30 µM
COc1cccc([C@@H](C)NC(=O)c2cccc(NCc3nnc(-c4ccncc4F)n3C)c2)c1 | 181 nM | > 30 µM
C[C@H](NC(=O)c1cccc(NCc2nnc(-c3ccncc3F)n2C)c1)c1ncccc1Cl | 52.8 nM | 1.03 µM
C[C@@H](NC(=O)c1cccc(NCc2nnc(-c3ccncc3F)n2C)c1)c1ncccc1Cl | 54.7 nM | 0.135 µM
O=C(NCc1cnc2ccccn12)c1cccc(NCc2nnc(-c3ccncc3)n2CCO)c1 | 5.77 nM | > 30 µM
Cc1cccc2ncc(CNC(=O)c3cccc(NCc4nnc(-c5ccncc5)n4CCO)c3)n12 | 5.86 nM | > 30 µM
CCc1cnccc1CNC(=O)c1cccc(NCc2nnc(-c3ccncc3)n2CCO)c1 | 14.3 nM | > 30 µM

Structure (SMILES) | IC50 [1] | IC50 [2]
Cn1c(CNc2cc(C(=O)N[C@H]3COCc4ccccc43)ccn2)nnc1-c1ccncn1 | 71.1 nM | 11 µM
Cn1c(CNc2cc(C(=O)N[C@H]3COc4cc(F)ccc43)ccn2)nnc1-c1ccncn1 | 118 nM | 1.93 µM
Cc1ccc(C#N)cc1CNC(=O)c1ccnc(NCc2nnc(-c3ccncn3)n2C)c1 | 7.07 nM | 1.41 µM
COc1ncc(Br)cc1CNC(=O)c1ccnc(NCc2nnc(-c3ccncn3)n2C)c1 | 28.1 nM | > 30 µM
COc1cccc([C@H](C)NC(=O)c2ccnc(NCc3nnc(-c4ccncn4)n3C)c2)c1 | 125 nM | 8 µM
COc1cccc([C@@H](C)NC(=O)c2ccnc(NCc3nnc(-c4ccncn4)n3C)c2)c1 | 9.89 nM | 0.468 µM
Cc1cccc2ncc(CNC(=O)c3cccc(NCc4nnc(-c5ccncc5)[nH]4)c3)n12 | 8.9 nM | > 10.2 µM
Cc1cccnc1CNC(=O)c1cccc(NCc2nnc(-c3ccncc3)[nH]2)c1 | 12.2 nM | > 30 µM
[2H]C([2H])(Nc1cccc(C(=O)N[C@@H]2COc3ccccc32)c1)c1nnc(-c2ccncn2)n1CCO | 3.76 nM | 0.096 µM
Cc1cccc2ncc(CNC(=O)c3cccc(NCc4nnc(-c5ccncc5F)n4C)c3)n12 | 3.91 nM | > 1.36 µM
Cn1c(CNc2cccc(C(=O)NCc3cnc4ccccn34)c2)nnc1-c1ccncc1F | 39 nM | > 30 µM
Cn1c(CNc2cccc(C(=O)N[C@H](CCO)c3ccccc3)c2)nnc1-c1ccncc1F | 18 nM | > 30 µM
Cn1c(CNc2cccc(C(=O)N[C@@H](CCO)c3ccccc3)c2)nnc1-c1ccncc1F | 28.9 nM | > 1.44 µM
Cn1c(CNc2cccc(C(=O)NCc3ccccc3C(F)(F)F)c2)nnc1-c1ccncc1F | 39.1 nM | > 2.32 µM
[2H]C([2H])(Nc1cccc(C(=O)N[C@H]2CCOc3ccccc32)c1)c1nnc(-c2ccncn2)n1CCO | 3.23 nM | 0.094 µM
